Data on 13 compounds can be found in patent US20090220554A1, “Transglutaminase Inhibitors and Methods of Use Thereof” (priority 2005, published 2009).

Structures are written as SMILES.

In the first assay the target is T1, recombinant human tissue transglutaminase 2 (TG2) (Homo sapiens, UniProt P21980).
T1 construct: 6xHis; made in house; host or cells: E. coli BL21
T1 sequence (P21980 1-687): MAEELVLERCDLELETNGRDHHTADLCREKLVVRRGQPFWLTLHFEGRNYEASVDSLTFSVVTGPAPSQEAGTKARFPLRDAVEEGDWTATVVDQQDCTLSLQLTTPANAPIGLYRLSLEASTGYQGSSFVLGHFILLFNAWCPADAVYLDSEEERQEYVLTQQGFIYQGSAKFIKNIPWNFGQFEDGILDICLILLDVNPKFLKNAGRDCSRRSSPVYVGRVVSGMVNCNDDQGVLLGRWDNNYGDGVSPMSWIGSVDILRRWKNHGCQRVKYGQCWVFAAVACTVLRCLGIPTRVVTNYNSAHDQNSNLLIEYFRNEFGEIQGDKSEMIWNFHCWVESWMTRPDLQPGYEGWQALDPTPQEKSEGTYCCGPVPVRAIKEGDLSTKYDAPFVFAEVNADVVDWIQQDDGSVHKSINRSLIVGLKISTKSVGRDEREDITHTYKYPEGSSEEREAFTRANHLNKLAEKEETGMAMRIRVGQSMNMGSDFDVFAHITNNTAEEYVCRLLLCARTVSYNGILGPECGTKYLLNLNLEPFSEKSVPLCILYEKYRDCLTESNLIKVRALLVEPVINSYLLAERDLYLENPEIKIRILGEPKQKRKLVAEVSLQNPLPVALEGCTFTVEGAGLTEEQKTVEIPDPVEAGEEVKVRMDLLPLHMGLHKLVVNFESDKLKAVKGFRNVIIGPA
Kind of assay: TG2 transamidation assay (5-(biotinamido)pentylamine incorporation into dimethylated casein). In kind it is biochemical.
Conditions: not given
The source says: Purification of recombinant human TG2. TG2 was purified from eight 1 L cultures of the BL21 strain of E. coli expressing a plasmid encoding recombinant, 6×-His tagged human tissue transglutaminase 2 (TG2). The enzyme was isolated from cell lysates using nickel affinity chromatography. Following a buffer exchange, TG2 was purified further by ion-exchange (HiTrap-Q) chromatography using an Akta-FPLC system (Amersham Biosciences). Fractions containing purified TG2 were pooled, exchanged into low salt buffer (20 mM Tris-Cl, 1 mM EDTA, 1 mM DTT, pH 7.2), supplemented with 10% glycerol, flash frozen in 100 μL aliquots and stored at −80° C.
Assays of tissue transglutaminase activity. The transamidation activity of TG2 was measured as described by Slaughter, et al. Anal Biochem, 1992. […] 5-BP incorporated by TG2 was visualized by binding of a streptavidin-alkaline phosphatase conjugate (Sigma) and kinetic measurement of the dephosphorylation of pNPP was monitored at 410 nm using a ThermoMax microplate reader (Molecular Devices). The deamidation activity of TG2 was measured essentially as described previously (Piper, et al. Biochemistry, 2002. 41(1): p. 386-93). […] TG2-catalyzed production of ammonium ions was monitored through the coupled oxidation of NADH by GDH. NADH levels were monitored by fluorescence (excitation: 341 nm; emission 451 nm) and were standardized with known amounts of NADH. […]
As to `O=C1NC(=O)N(c2cccc(Cl)c2)C(=O)/C1=N/c1ccc(Cl)c(CN2C(=O)c3ccccc3C2=O)c1` [CSRF-21, 5-[4-Chloro-3-(1,3-dioxo-1,3-dihydro-isoindol-2-ylmethyl)-phenylimino]-1-(3-chloro-phenyl)-pyrimidine-2,4,6-trione], the IC50 (in general, the point on the concentration scale where inhibition reaches its midpoint) was 10 µM.

The next assay concerns the target T1, recombinant human tissue transglutaminase 2 (TG2). Kind of assay: TG2 deamidation assay (GDH-coupled fluorescent NADH assay, Z-Gln-Gly substrate). It counts as biochemical. The settings on record: fluorescent NADH-based deamidation assay; from log(concentration)-response relationships; read-out: IC50 for inhibition of TG2. As to the method: The illustrative compounds of the invention described above were tested in a TG2 assay with recombinant human tissue transglutaminase, as described in the Examples. […] It should be noted that, although […] inhibition is observed upon addition of these compounds, this observation may result from the ability of some inhibitors to bind to the GTP binding site of TG2. […] Thus, it follows that pharmacologically useful inhibitors of TG2 could be identified based on their ability to bind to either the enzyme active site or the GTP binding site. Purification of recombinant human TG2. […] The enzyme was isolated from cell lysates using nickel affinity chromatography. Following a buffer exchange, TG2 was purified further by ion-exchange (HiTrap-Q) chromatography using an Akta-FPLC system (Amersham Biosciences). […] Assays of tissue transglutaminase activity. The transamidation activity of TG2 was measured as described by Slaughter, et al. Anal Biochem, 1992. 205(1): p. 166-71. Briefly, 96-well Maxisorp plates (Nunc, Inc.) were coated with […] N′—N′-dimethylated casein overnight at 4° C. […] The deamidation activity of TG2 was measured essentially as described previously (Piper, et al. Biochemistry, 2002. 41(1): p. 386-93). […] TG2-catalyzed production of ammonium ions was monitored through the coupled oxidation of NADH by GDH. NADH levels were monitored by fluorescence (excitation: 341 nm; emission 451 nm) and were standardized with known amounts of NADH. During enzymatic reactions, NADH levels were monitored kinetically using a Fluoroskan II (Labsystems, Inc.) 96-well plate reader and a lag time of four minutes. These values were determined through analysis of the log(concentration)-response relationships.
For the compound `O=C1Nc2ccc(Cc3ccc4c(c3)C(=O)C(=O)N4)cc2C1=O` [CSRF-14, 1,1-di-(1H-indole-2,3-dione-5-yl)-methane], the half-inhibitory concentration (IC50) turned out to be 16 µM.
Take `O=C(CN1C(=O)C(=O)c2ccccc21)Nc1ccc(N2CCN(C(=O)c3cccs3)CC2)cc1` [CSRF-6, 2-(2,3-dioxo-2,3-dihydro-indol-1-yl)-N-{4-[4-(thiophene-2-carbonyl)-piperazin-1-yl]-phenyl}-acetamide]: the 50% inhibitory concentration (IC50) is 17 µM.
As to `O=C1C(=O)N(C(=O)NC2CCCCC2)c2ccc(Br)cc21` [CSRF-20, 5-bromo-2,3-dioxo-2,3-dihydro-indole-1-carboxylic acid cyclohexylamide], the IC50 worked out at 110 µM.
Same read-out and setting: as for `CC1=CC(C)(C)N2C(=O)C(=O)c3cc(OC(=O)C4CCCO4)cc1c32` (stereo not shown) [CSRF-24, tetrahydrofuran-2-carboxylic acid 4,4,6-trimethyl-1,2-dioxo-1,2-dihydro-4H-pyrrolo[3,2,1-ij]quinolin-8-yl ester], the figure is 450 µM.
Regarding `O=C1Nc2ccc(Oc3ccc4c(c3)C(=O)C(=O)N4)cc2C1=O` [CSRF-18, di-(1H-indole-2,3-dione-5-yl)-ether], the 50% inhibitory concentration (IC50) was determined as 23 µM.
Consider `O=C(NNC(=O)C1=NOC(CNc2ncc(C(F)(F)F)cc2Cl)C1)Nc1ccc(Cl)cc1` (stereo not shown) [CSRF-13, 1-(4-chloro-phenyl)-3-(2-{5-[3-chloro-5-trifluoromethyl-pyridin-2-ylamino)-methyl]-4,5-dihydro-isoxazol-3-yl}-carboxamido-N-urea], for which the IC50 turned out to be 250 µM.
Consider `Cc1ccc2c(c1)C(=O)C(=O)N2CC(=O)Nc1ccc(S(=O)(=O)NCC2CCCO2)cc1` (stereo not shown) [CSRF-8], for which the half-inhibitory concentration (IC50) was found to be 150 µM.
Consider `O=C(CSc1nnc2c(n1)[nH]c1ccc(F)cc12)OC1CCCCC1` [CSRF-2, (6-fluoro-9H-1,3,4,9-tetraaza-fluoren-2-ylsulfanyl)-acetic acid cyclohexyl ester], for which the half-maximal inhibitory concentration (IC50) came out at 36 µM.
The same measure, in the same setting: the same measure for `Cc1cccc(NC(=S)N(Cc2cc3ccc(C)c(C)c3[nH]c2=O)CC2CCCO2)c1` (stereo not shown) [CSRF-3, 1-(7,8-dimethyl-2-oxo-1,2-dihydro-quinolin-3-ylmethyl)-1-(tetrahydrofuran-2-ylmethyl)-3-m-tolyl-thiourea]: 30 µM; for `O=C(CN1C(=O)C(=O)c2cc(Br)ccc21)NCC1CC1` [CSRF-7, 2-(5-bromo-2,3-dioxo-2,3-dihydro-indol-1-yl)-N-cyclopropylmethyl-acetamide]: 30 µM.
As for `CCN1C(=O)c2cccc3c(NC(=O)CSc4ccc5ccccc5n4)ccc1c23` [CSRF-17], the half-maximal inhibitory concentration (IC50) worked out at 200 µM.

In the next assay the test system is neurologic cancer.
Assay: not given
The note with it: at concentrations of 12.5-50 mg/kg; cited from earlier work.
In the case of `O=C(N[C@@H](Cc1ccc(O)cc1)C(=O)NCC1CC(Br)=NO1)OCc1ccccc1` (stereo partly shown) [KCC009], the “activity in a mouse model for neurologic cancer” value is given as “active”.
